Assay results as given in a melting point compilation (Tetko et al.; mined from patent text by program, amines drawn as free bases though some values may be those of a salt).

Structure (SMILES) | melting point
C#CCN(CC#C)c1ccc(Cl)c(Cl)c1 | 48 to 50 °C
O=C(N1CCc2cc(S(=O)(=O)Cl)ccc2C1)C(F)(F)F | 110 to 112 °C
CN1CC=C(c2c[nH]c3ccc(NS(C)(=O)=O)cc23)CC1 | 210 to 214 °C
Cc1ccc(C=COc2cccc3c2C(=O)c2ccccc2C3=O)cc1 | 88 to 90 °C
O=C(OC(F)C(F)F)c1cnccn1 (centres undefined) | 46 to 48 °C
CCCCn1cc(S(C)=O)c(=O)c2sccc21 (centres undefined) | 137 to 138 °C
Cc1oc(-c2ccccc2)nc1COc1ccc(C(=O)Nc2nn(-c3ccccc3)cc2C=O)cc1 | 185 to 186 °C
CSc1nc(Cc2ccccc2N)n[nH]1 | 99 to 102 °C
Cc1nc(-c2cccc(C(F)(F)F)c2)ccc1CO | 73 to 75 °C
CCOC(=O)c1cnc2ccc(F)cc2c1O | > 260 °C
CC(C)CCCC(C)C1CCC2C3CC=C4CC(OCCCCCCSC5OC(CO)C(O)C(O)C5O)CCC4(C)C3CCC12C (centres undefined) | 110 °C
CCOC(=O)CCCCOc1ccc([N+](=O)[O-])c(C=C2NC(=O)NC2=O)c1 | 127 to 129 °C
Cc1nc(Cl)c(C#N)c(NCc2cccnc2)n1 | 165 to 167 °C
CCCn1nc(C)c([N+](=O)[O-])c1C(N)=O | 136 to 138 °C
COC(=O)c1ccc(NCc2ccc(Cl)c(Cl)c2)cn1 | 158 to 161 °C
CC(C)(C)OC(=O)N1CCN(c2cccc([N+](=O)[O-])c2)C(=O)C1 | 122 to 123 °C
CCOc1cc2c(cc1OCC)C1(CCC(C(=O)O)(C(=O)O)CC1)N(C(=O)OCc1ccccc1)CC2 | 175 to 176 °C
O=C1C2=C(C(=O)N1CCO)c1ccccc1CC2 | 120 to 121 °C
CC1(C)CCSc2ccc(CC#Cc3ccc(C(=O)O)c(O)c3)cc21 | 195 to 196 °C
Cc1c(CCNC(=O)OC(C)(C)C)c2cc(S(=O)(=O)c3ccc(C(F)(F)F)cc3)ccc2n1C | 124 to 128 °C
CCCCNC(=O)c1ccc(S(=O)(=O)NC(=O)c2ccc(C(=O)NCC(=O)OC)nc2)cc1 | 215 to 217 °C
COC(=O)c1c(Cl)cc(Cl)cc1NC(=O)CSc1ccc(NC(=O)c2cccnc2)cc1 | 156 to 159 °C
CN(C)Cc1ccc(CSCCN=CNS(=O)(=O)c2ccc(Cl)cc2)o1 | 93 to 96 °C
CCCCCCCCCCCCCCCCOC(=O)c1ccc(-c2nnn[nH]2)nc1 | 139 to 140 °C
O=[N+]([O-])c1ccc(Oc2ccccc2)c(Cl)c1NCc1ccc(Cl)cc1 | 75 to 76 °C

Structure (SMILES) | melting point
COC(C)(C)OCC(C)C1CCC2C3C=CC4=CC(=O)C5OC5C4(C)C3CCC12C (centres undefined) | 150 to 151 °C
C=CCN(CC=C)Cc1nc(-c2ncn3c2[C@@H]2CCN2C(=O)c2c-3ccc(F)c2Cl)no1 | 103 to 104 °C
O=C(O)c1cn(C2CSC2)c2cc(F)c(F)cc2c1=O | 251 to 256 °C
CCSC1=NCC(=O)N1c1ccc(C)c(Cl)c1 | 133 to 135 °C
CN1CCN(c2cc3c(cc2F)c(=O)c(C(=O)O)cn3Cc2ccccc2)CC1 | 266 °C
CCOC(=O)c1cnc2cc(C)nn2c1N(C)S(=O)(=O)c1ccc(Oc2ccncc2)cc1 | 139 to 144 °C
Cc1ccc2nc3c(nc2c1)SC(C#N)=C(C#N)S3 | 213 to 215 °C
CC(C)(C)OC(=O)[C@H]1C[C@@H](C(=O)OCc2ccccc2)[C@@H](c2ccccc2)N1 (racemic) | 70 °C
COc1cccc(CSc2ncccc2C(=O)O)c1 | 156 to 157 °C
CCOC(=O)C(Cc1ccc(C(F)(F)F)cc1)C(=O)c1ccc(F)cc1F (centres undefined) | 34 to 35 °C
CCc1nc2cc(C(C)=O)ccc2n1-c1ccc(CCOC(=O)NS(=O)(=O)c2ccc(C)cc2)cc1 | 188 to 190 °C
CCCCCCCCCCCC(=O)Nc1ccc(O)c(C(=O)O)c1 | 201 to 205 °C
Cc1ccc(S(=O)(=O)n2cc(C[C@H]3CCCN3C)c3cc(Br)ccc32)cc1 | 98 to 104 °C
CCCCNC(=O)C(=O)[C@H](CC(C)C)NC(=O)[C@@H](NS(=O)(=O)c1ccc(F)cc1)C(C)C | 108 to 110 °C
COc1c(Nc2ncc3ccc(-c4ccccc4N(C)S(C)(=O)=O)n3n2)ccc(N2CCN(C[C@H](C)O)CC2)c1F | 86 to 88 °C
CN1CCc2ccccc2C(c2ccccc2)C1(C)C (centres undefined) | 92 to 93 °C
O=C(NC1CCN(CCCC(O)c2ccccc2)CC1)c1ccccc1 (centres undefined) | 155 to 156 °C
C1=Cc2c3c(ccc2=N1)=CC=N3 | 201 to 205 °C
COc1ccc2nnc3ccc(OC)cc3c2c1 | 170 to 172 °C
CN(C)[C@H]1C[C@@H]2CN(C(=O)c3ccc(NC(=O)c4ccccc4-c4ccccc4)cc3)c3ccccc3N2C1 | 195 to 197 °C
Cc1nc2n(C)c(C)cn2c(=O)c1CCBr | 125 °C
CCc1cc2c(s1)-n1c(nnc1C1CCCCC1)CN=C2c1ccccc1Cl | 116 to 119 °C
CN1C(=O)CN=C(c2ccccc2F)c2c1ccc(NC(=O)NC(C)(C)C)c2Cl | 206 to 208 °C
N#Cc1cc(C(F)(F)F)cc(Br)c1-c1nc(C(F)(F)C(F)(F)F)c(Br)c(=O)[nH]1 | 156 °C
Nc1ncnc2[nH]c(=O)sc12 | > 370 °C

Structure (SMILES) | melting point
Cc1ccc(-c2cccc(CCl)n2)cc1 | 94 °C
COc1ccc(CCN2CCC(C(O)(c3ccccc3)c3nc4ccccc4s3)CC2)cc1 (centres undefined) | 67 to 70 °C
CC1=C(CNC(=O)NCCCN(C)C)c2cc(F)ccc2/C1=C\c1ccc(S(C)(=O)=O)cc1 | 147 °C
Nc1ccc2nc(-c3ccc(Cl)cc3)sc2c1 | 166 to 168 °C
COc1cc(C)c2c(=O)c3c(C)c(Cl)ccc3oc2c1OC | 101 °C
COCC1(CC(=O)O)OCC(=O)c2c1[nH]c1ccccc21 (centres undefined) | 135 to 140 °C
CCCc1nc2ccnn2cc1Cc1ccc(-c2ccccc2C#N)cc1 | 154 °C
CCOC(=O)c1cc2sc(C)c(N(C)S(=O)(=O)c3cccs3)c2[nH]1 | 161 °C
CN1C(=O)N(c2ccccc2)C(=O)C1=NC(Cl)C(Cl)(Cl)Cl (centres undefined) | 158 to 160 °C
CC(C)(C)OC(=O)NCC1=C(CC(=O)O)CCCC1 | 118 to 119 °C
CC(C)(C)c1ccccc1N1CCN(C(=O)c2ncoc2CCC(=O)O)CC1 | 180 to 181 °C
CC(C)=CC(C#N)NC(=O)c1cc(C)nn1C (centres undefined) | 92.5 to 94 °C
CC1CN(c2ncc(Br)cc2C=O)CC1C (centres undefined) | 98.5 to 99.5 °C
CCCC1=C(c2ccc(F)cc2)C(=NO)CC1 | 165 to 166 °C
COc1ccc2nc3ccc(C#N)cn3c(=O)c2c1 | 284 to 285 °C
COc1ccc(C(CN(C)C(=O)/C=C/c2cccnc2)=NO)cc1OC | 172 to 173 °C
CCNC(=O)ON1C(=O)CCC1=O | 131 to 133 °C
N#CC=C(N)c1ccc2ccccc2c1 | 85 to 90 °C
COc1ccc(-c2c(Cl)c(CN3C(=O)CCC3=O)nc3sc4c(F)c(OC)ccc4c23)cc1 | 215 to 216 °C
Cc1cc(-c2noc(C(F)F)n2)cc(C)c1OCCCc1cncs1 | 78 to 80 °C
O=C(NC(Cc1c[nH]c2ccccc12)C(=O)NCc1cc(C(F)(F)F)cc(C(F)(F)F)c1)c1ccccc1 (centres undefined) | 182 to 184 °C
Cc1cc(O)c(S(=O)C(C)(C)C)c(=O)o1 (centres undefined) | 119 °C
COc1ccsc1C1CCN(C[C@H](Cc2ccccc2)NC(=O)C2CCCCC2)CC1 | 92 to 94 °C
COS(=O)(=O)CS(C)(=O)=O | 101 to 104 °C
